Measurements reported in PMC6934184, “Selective DNA-PKcs inhibition extends the therapeutic index of localized radiotherapy and chemotherapy” (The Journal of Clinical Investigation, 2019).

Biological target: T1, ALK C1156Y (Homo sapiens, UniProt Q9UM73, C1156Y)
T1 construct: purchased Thermo Fisher Scientific (Life Technologies) SelectScreen
Experiment: SelectScreen LanthaScreen
Assay type: binding
Settings: read-out: % displacement
Procedure, shortened: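 NU5455 was profiled across the SelectScreen Broad panel of kinase activity and binding assays. Z'LYTE reactions such as CSF1R ran at apparent Km ATP, while the Adapta CAMK1 assay used ATP listed as 10. Values are given as percent.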

T1 sequence (Q9UM73 19-1620 C1156Y): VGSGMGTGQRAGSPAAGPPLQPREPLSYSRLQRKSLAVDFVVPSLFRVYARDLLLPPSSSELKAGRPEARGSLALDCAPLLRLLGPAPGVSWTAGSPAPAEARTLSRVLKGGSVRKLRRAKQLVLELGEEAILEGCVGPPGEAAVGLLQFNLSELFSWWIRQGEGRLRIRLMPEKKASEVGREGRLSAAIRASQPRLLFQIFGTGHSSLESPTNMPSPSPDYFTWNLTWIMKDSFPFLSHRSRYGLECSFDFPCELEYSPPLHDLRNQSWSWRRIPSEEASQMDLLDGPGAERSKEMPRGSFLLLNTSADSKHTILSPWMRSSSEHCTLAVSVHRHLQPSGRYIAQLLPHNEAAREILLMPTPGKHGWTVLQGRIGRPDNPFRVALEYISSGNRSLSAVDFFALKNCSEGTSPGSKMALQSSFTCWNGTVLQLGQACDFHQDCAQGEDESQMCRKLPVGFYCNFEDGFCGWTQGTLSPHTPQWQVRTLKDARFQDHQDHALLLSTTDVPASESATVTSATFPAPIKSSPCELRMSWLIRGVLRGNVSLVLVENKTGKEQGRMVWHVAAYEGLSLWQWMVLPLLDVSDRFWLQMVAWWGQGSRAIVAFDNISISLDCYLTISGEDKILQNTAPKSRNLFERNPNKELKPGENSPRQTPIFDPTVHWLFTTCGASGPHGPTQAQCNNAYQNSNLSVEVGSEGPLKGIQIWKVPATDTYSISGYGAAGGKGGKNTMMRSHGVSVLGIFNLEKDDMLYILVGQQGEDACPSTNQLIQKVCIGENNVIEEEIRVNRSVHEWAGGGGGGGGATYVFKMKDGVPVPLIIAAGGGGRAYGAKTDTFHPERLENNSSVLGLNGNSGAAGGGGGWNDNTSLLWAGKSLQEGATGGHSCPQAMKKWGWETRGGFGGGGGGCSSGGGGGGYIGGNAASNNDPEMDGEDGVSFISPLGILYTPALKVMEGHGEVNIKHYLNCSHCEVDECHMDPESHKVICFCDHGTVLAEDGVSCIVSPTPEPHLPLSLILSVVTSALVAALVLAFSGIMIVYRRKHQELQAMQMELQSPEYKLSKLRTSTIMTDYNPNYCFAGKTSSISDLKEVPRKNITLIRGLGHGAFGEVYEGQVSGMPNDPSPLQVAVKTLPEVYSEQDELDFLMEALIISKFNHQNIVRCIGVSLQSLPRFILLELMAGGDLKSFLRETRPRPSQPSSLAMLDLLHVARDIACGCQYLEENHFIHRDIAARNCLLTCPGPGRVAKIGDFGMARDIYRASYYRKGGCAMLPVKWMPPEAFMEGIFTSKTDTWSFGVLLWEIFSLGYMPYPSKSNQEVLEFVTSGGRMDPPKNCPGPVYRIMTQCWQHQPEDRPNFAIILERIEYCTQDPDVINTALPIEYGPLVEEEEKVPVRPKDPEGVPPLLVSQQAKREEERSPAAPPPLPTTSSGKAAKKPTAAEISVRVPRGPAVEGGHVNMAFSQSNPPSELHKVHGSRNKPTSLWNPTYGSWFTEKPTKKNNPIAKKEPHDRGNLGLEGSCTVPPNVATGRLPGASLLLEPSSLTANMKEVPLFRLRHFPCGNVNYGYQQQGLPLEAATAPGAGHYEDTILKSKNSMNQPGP

CN(C(=O)CN1CCOCC1)c1ccc2sc3c(-c4cccc5c(=O)cc(N6CC7CCC(C6)O7)oc45)cccc3c2c1 [NU5455]
inhibition at 1 µM: 0.6%
